The values below come from patent US20220041616A1, “SPIRO COMPOUND AND MEDICAL USES THEREOF” (The National Institutes of Pharmaceutical R&D Co., Ltd., priority 2018, published 2022).

This assay has as its target T1, ACC1 (Homo sapiens, UniProt Q13085).
T1 construct: purchased BPS bioscience
Description: In vitro inhibition of ACC1 activity, ADP-Glo Kinase Analysis. The class given is biochemical. The conditions noted are these: 1 nM ACC1, 10 μM acetyl-CoA, 20 μM ATP. An excerpt: ADP-Glo™ Kinase Analysis Kit (Promega) is used for the in vitro analysis of the inhibitory effect of the present compound on ACC1 or ACC2. ADP-Glo™ Kinase Analysis is a kinase detection analysis of luminescence method. ADP is produced in the process of catalyzing the substrate by ACC. ADP is converted into ATP which is then converted into light by Ultra-Glo™ luciferase. ADP is quantified by detecting the light signal, thus the enzyme activity can be measured by quantification of the ADP amount produced during the enzyme reaction. The analysis is carried out in two steps: in the first step, after the kinase reaction, a portion of ADP-Glo™ reagent equal in volume to the kinase reaction system is added to terminate the reaction and consume the remaining ATP; in the second step, a kinase detection reagent is added, which not only converts ADP into ATP, but also uses a coupled luciferase/luciferin reaction to detect newly synthesized ATP.
a. 10 mM compound stock solution (the present compound was dissolved in 100% DMSO to prepare the 10 mM stock solution) was diluted 50-fold to 200 μM with 100% DMSO, and then diluted in equal proportions (1:3) in a 96-well dilution plate (249944, Nunc). The gradient concentrations of the compound were 200 μM, 66.67 μM, 22.22 μM, 7.41 μM, 2.47 μM, 0.823 μM, 0.274 μM, 0.0914 μM, 0.0305 μM, 0.0102 μM, 0.00339 μM and 0.00113 μM.
b. 4.5 μL ACC1 working solution (BPS bioscience) (2.22 nM) was added to each well of a 384-well test plate (6007290, Perkin Elmer).
c. 0.5 μL of the serially diluted compound (prepared in step a) was added to each well of the 384-well test plate, which was centrifuged at 1000 rpm for 1 min and then incubated at room temperature for 15 min. The reaction system with compound GS-0976 at a final concentration of 0.1 μM was used as positive control; the reaction system with no compound but DMSO at a final concentration of 5% was used as negative control.
d. In the 384-well test plate (prepared in step c), 5 μL of the substrate working solution was added to each well to start the enzymatic reaction. The plate was centrifuged at 1000 rpm for 1 min and then incubated at room temperature for 30 min. The final concentration of each component in the ACC1 reaction system: 1 nM ACC1, 10 μM acetyl-CoA, 30 mM NaHCO3, and 20 μM ATP. The final concentration of each component in the ACC2 reaction system: 1.1 nM ACC2, 20 μM acetyl-CoA, 20 mM NaHCO3, and 15 μM ATP. Final concentrations of test compounds: 10 μM, 3.33 μM, 1.11 μM, 0.37 μM, 0.123 μM, 0.0411 μM, 0.0137 μM, 0.00457 μM, 0.00152 μM, 0.00051 μM, 0.00017 μM and 0.000056 μM. The final concentration of DMSO was 5% (v/v).
e. 10 μL of ADP-Glo reagent was added to each well of the 384-well test plate (prepared in step d), which was centrifuged at 1000 rpm for 1 min and then incubated at room temperature for 40 min.
f. 20 μL of kinase detection reagent was added to each well of the 384-well test plate (prepared in step e), which was centrifuged at 1000 rpm for 1 min and then incubated at room temperature for 40 min.
g. The chemiluminescence signal was detected with Perkin Elmer EnVision 2104.
ACC1 working solution and substrate working solution were both prepared with 1× kinase reaction buffer. The buffer was consisting of 50 mM HEPES buffer, 2 mM magnesium chloride, 0.01% BRIJ-35, 2 mM potassium citrate, 50 μg/mL BSA and 2 mM DTT.
The average value of the positive and negative control well and the standard deviation were calculated. The inhibition percentage was calculated according to the following formula: 100×[1−(compound−average value of positive control)/(average value of negative control-average value of positive control)].
IC50 of the compound was obtained using GraphPad Prism 6 software according to the following nonlinear fitting formula:
Y=Bottom+(Top−Bottom)/(1+10^((Log IC50−X)×Hillslope)), […]
In general, IC50 refers to the concentration that gives 50% inhibition. Low readings indicate inhibition by little substance, high ones a need for much substance. As for `Cc1c(-c2ncco2)sc2c1C(=O)C1(CCC(C(=O)O)C1)C(=O)N2CC(OC1CCOCC1)c1ccccc1` (mixture of isomers) [Compound 3, 3′-methyl-2′-(oxazol-2-yl)-4′,6′-dioxo-7′-(2-phenyl-2-((tetrahydro-2H-pyran-4-yl)oxy)ethyl)-6′,7′-dihydro-4′H-spiro[cyclopentane-1,5′-thieno[2,3-b]pyridine]-3-carboxylic Acid], the IC50 lay in the range of 100 to 500 nM.

`COc1ccccc1C(CN1C(=O)C2(CCC(C(=O)O)C2)C(=O)c2c1sc(-c1ncco1)c2C)OC1CCOCC1` (mixture of isomers) [Compound 5e, 7′-(2-(2-methoxyphenyl)-2-((tetrahydro-2H-pyran-4-yl)oxy)ethyl)-3′-methyl-2′-(oxazol-2-yl)-4′,6′-dioxo-6′,7′-dihydro-4′H-spiro[cyclopentane-1,5′-thieno[2,3-b]pyridine]-3-carboxylic Acid] displayed an IC50 of 10 to 100 nM.

Molecule `COc1ccccc1[C@H](CN1C(=O)C2(CCN(CC(=O)O)CC2)C(=O)c2c1sc(-c1ncco1)c2C)OC1CCOCC1` [Compound 23, (R)-2-(7′-(2-(2-methoxyphenyl)-2-((tetrahydro-2H-pyran-4-yl)oxy)ethyl)-3′-methyl-2′-(oxazol-2-yl)-4′,6′-dioxo-6′,7′-dihydro-4′H-spiro[piperidine-4,5′-thieno[2,3-d]pyridin]-1-yl)acetic Acid] registered an IC50 of less than 10 nM.

Consider `COc1ccccc1[C@H](CN1c2sc(-c3ncco3)c(C)c2C(=O)[C@]2(C[C@H](C(=O)NCCO)C2)C1=O)OC1CCOCC1` [Compound 18, (1s,3S)-N-(2-hydroxyethyl)-7′-((R)-2-(2-methoxyphenyl)-2-((tetrahydro-2H-pyran-4-yl)oxy)ethyl)-3′-methyl-2′-(oxazol-2-yl)-4′,6′-dioxo-6′,7′-dihydro-4′H-spiro[cyclobutane-1,5′-thieno[2,3-b]pyridine]-3-carboxamide], for which the IC50 was less than 10 nM.

As to “7′-(2-(2-methoxyphenyl)-2-((tetrahydro-2H-pyran-4-yl)oxy)ethyl)-3′-methyl-2′-(oxazol-2-yl)-4′,6′-dioxo-6′,7′-dihydro-4′H-spiro[cyclohexane-1,5′-thieno[2,3-b]pyridine]-3-carboxylic Acid [Compound 7b]”, the half-maximal inhibitory concentration (IC50) lay within 100 to 500 nM.

`COc1ccccc1[C@H](CN1c2sc(-c3ncco3)c(C)c2C(=O)[C@]2(C[C@H](C(=O)N(C)CC(=O)O)C2)C1=O)OC1CCOCC1` [Compound 15, N-((1s,3S)-7′-((R)-2-(2-methoxyphenyl)-2-((tetrahydro-2H-pyran-4-yl)oxy)ethyl)-3′-methyl-2′-(oxazol-2-yl)-4′,6′-dioxo-6′,7′-dihydro-4′H-spiro[cyclobutane-1,5′-thieno[2,3-b]pyridine]-3-carbonyl)-N-methylglycine] gave an IC50 of less than 10 nM.

`COC(=O)CN1CCC2(CC1)C(=O)c1c(sc(-c3ncco3)c1C)N(C[C@H](OC1CCOCC1)c1ccccc1OC)C2=O` [Compound 22, methyl (R)-2-(7′-(2-(2-methoxyphenyl)-2-((tetrahydro-2H-pyran-4-yl)oxy)ethyl)-3′-methyl-2′-(oxazol-2-yl)-4′,6′-dioxo-6′,7′-dihydro-4′H-spiro[piperidine-4,5′-thieno[2,3-d]pyridine]-1-yl)carboxylate] returned an IC50 of 10 to 100 nM.

The molecule `COc1ccccc1C(CN1C(=O)C2(CC(C(=O)O)C2)C(=O)c2c1sc(-c1ncco1)c2C)OC1CCOCC1` (single isomer, unassigned) [Compound 8a, 7′-(2-(2-methoxyphenyl)-2-((tetrahydro-2H-pyran-4-yl)oxy)ethyl)-3′-methyl-2′-(oxazol-2-yl)-4′,6′-dioxo-6′,7′-dihydro-4′H-spiro[cyclobutane-1,5′-thieno[2,3-b]pyridine]-3-carboxylic Acid] registered a half-inhibitory concentration (IC50) of 10 to 100 nM.
